Results reported in ChEMBL document CHEMBL4387733, “Design, synthesis and biological evaluation of indane derived GPR40 agoPAMs” (Bioorg Med Chem Lett, 2019).
In brackets after ≈: the same amount, converted by molar mass. Activity calls are given as the source filed them. The rule behind the calls is not given here.

Experiments:
[1] = Drug level in rat hepatocytes treated with (2S,3R)-3-cyclopropyl-3-(3-((R)-5-(2-fluoro-5-methoxyphenyl)-2,3-dihydro-1H-inden-1-yloxy)phenyl)-2-methylpropanoic acid at 5 uM measured after 2 hrs; format: ADME, cell-based, Hepatocyte
[2] = Stability of the compound in pH 7.4 potassium phosphate buffer at 10 uM measured after 5 hrs; format: physicochemical; details: pH 7.4, 5 h
[3] = Drug level in human hepatocytes treated with (2S,3R)-3-cyclopropyl-3-(3-((R)-5-(2-fluoro-5-methoxyphenyl)-2,3-dihydro-1H-inden-1-yloxy)phenyl)-2-methylpropanoic acid at 5 uM measured after 2 hrs; format: ADME, cell-based, Hepatocyte
[4] = Toxicity in rat assessed as change in body weight at 600 mg/kg administered for 4 days; format: organism-based; details: in vivo, 96 h
[5] = Drug level in Wistar Han rat assessed as unbound fraction at 1 mg/kg, iv or 2 mg/kg, po; format: ADME, organism-based; details: in vivo
[6] = molecular target: T1, Free fatty acid receptor 1 (Homo sapiens, UniProt O14842); experiment: Positive allosteric modulation of recombinant human GPR40 expressed in HEK293 cells assessed as increase in [3H]-myo-inositol phosphate accumulation measured after 60 mins in absence of human serum by microbeta counting method relative to control; format: functional, cell-based; design: concentration or dose not given beside the values
[7] = Drug metabolism in human hepatocytes assessed as (2S,3S,4S,5R)-6-((2S,3R)-3-cyclopropyl-3-(3-((R)-5-(2-fluoro-5-methoxyphenyl)-2,3-dihydro-1H-inden-1-yloxy)phenyl)-2-methylpropanoyloxy)-3,4,5-trihydroxytetrahydro-2H-pyran-2-carboxylic acid formation at 5 uM measured after 2 hrs; format: ADME, cell-based, Hepatocyte
Rattus norvegicus [8] = experiment: Hypoglycemic activity in Sprague-Dawley rat assessed as reduction in blood glucose AUC at 10 mg/kg, po pretreated for 1 hr followed by glucose challenge by OGTT relative to control; format: functional; design: scale not given: the % may be the effect or the level left
[9] = molecular target: T1, Free fatty acid receptor 1; experiment: Positive allosteric modulation of recombinant human GPR40 expressed in HEK293 cells assessed as increase in [3H]-myo-inositol phosphate accumulation measured after 60 mins in absence of human serum by microbeta counting method; format: functional, cell-based
[10] = Drug metabolism in rat hepatocytes assessed as (2S,3R)-3-cyclopropyl-3-(3-((R)-5-(2-fluoro-5-(sulfooxy)phenyl)-2,3-dihydro-1H-inden-1-yloxy)phenyl)-2-methylpropanoic acid formation at 5 uM measured after 2 hrs; format: ADME, cell-based, Hepatocyte
[11] = Cmax in Wistar Han rat at 1 mg/kg, iv or 2 mg/kg, po; format: ADME, organism-based; details: in vivo
[12] = Protein binding in rat plasma assessed as unbound fraction at 3 mg/kg, po; format: ADME, organism-based; details: in vivo
[13] = molecular target: T1, Free fatty acid receptor 1; experiment: Positive allosteric modulation of recombinant human GPR40 expressed in HEK293 cells assessed as increase in [3H]-myo-inositol phosphate accumulation measured after 60 mins in presence of 100% human serum by microbeta counting method relative to control; format: functional, cell-based
[14] = molecular target: Sodium-dependent noradrenaline transporter (Homo sapiens) (UniProt P23975); experiment: Inhibition of human sodium dependent noradrenaline transporter at 10 uM relative to control
Rattus norvegicus [15] = experiment: Hypoglycemic activity in Sprague-Dawley rat assessed as reduction in blood glucose AUC at 3 mg/kg, po pretreated for 1 hr followed by glucose challenge by OGTT relative to control; format: functional; design: scale not given: the % may be the effect or the level left
[16] = Dose normalized AUC in Wistar Han rat at 2 mg/kg, po; format: ADME, organism-based; details: in vivo
Rattus norvegicus [17] = experiment: Hypoglycemic activity in Sprague-Dawley rat assessed as reduction in blood glucose AUC at 1 mg/kg, po pretreated for 1 hr followed by glucose challenge by OGTT relative to control; format: functional; design: scale not given: the % may be the effect or the level left
[18] = Drug level in rat plasma at 100 mg/kg; format: ADME, organism-based; details: in vivo
[19] = Ratio of compound effect for protein binding in rat plasma assessed as unbound fraction at 30 mg/kg, po to fEC50 for positive allosteric modulation of recombinant human GPR40 expressed in HEK293 cells in presence of 100% human serum
[20] = Toxicity in rat at 100 mg/kg administered for 4 days; format: organism-based; details: in vivo, 96 h
[21] = Total drug level in rat plasma at 3 mg/kg, po; format: ADME, organism-based; details: in vivo
[22] = Drug level in rat plasma at 650 mg/kg; format: ADME, organism-based; details: in vivo
[23] = Total drug level in rat plasma at 0.3 mg/kg, po; format: ADME, organism-based; details: in vivo
[24] = Oral bioavailability in Wistar Han rat at 2 mg/kg; format: ADME, organism-based; details: in vivo
[25] = molecular target: Prostaglandin E2 receptor EP3 subtype (Homo sapiens) (UniProt P43115); experiment: Inhibition of human prostanoid EP3 receptor at 10 uM relative to control
[26] = molecular target: Cysteinyl leukotriene receptor 2 (Homo sapiens) (UniProt Q9NS75); experiment: Displacement of [3H]LTD4 from human full-length recombinant cysteinyl leukotriene type-2 receptor expressed in HEK293 cells at 10 uM measured after 60 mins by scintillation counting method relative to control; format: cell-based
[27] = molecular target: Prostaglandin E2 receptor EP1 subtype (Homo sapiens) (UniProt P34995); experiment: Inhibition of human prostanoid EP1 receptor at 10 uM relative to control
Mus musculus = organism: Mus musculus; experiment: Glucose lowering effect in mouse assessed as increase in GLP-1 level; format: functional, organism-based
[28] = Unbound drug level in Wistar Han rat plasma at 1 mg/kg, iv or 2 mg/kg, po measured at 3 hrs; format: ADME, organism-based; details: in vivo
[29] = Total drug level in rat plasma at 1 mg/kg, po; format: ADME, organism-based; details: in vivo
[30] = molecular target: Beta-3 adrenergic receptor (Homo sapiens) (UniProt P13945); experiment: Inhibition of human beta3 adrenergic receptor at 10 uM relative to control
[31] = Protein binding in rat plasma assessed as unbound fraction at 10 mg/kg, po; format: ADME, organism-based; details: in vivo
[32] = Protein binding in rat plasma assessed as unbound fraction at 30 mg/kg, po; format: ADME, organism-based; details: in vivo
[33] = molecular target: Sodium-dependent dopamine transporter (Homo sapiens) (UniProt Q01959); experiment: Inhibition of human sodium dependent dopamine transporter at 10 uM relative to control
[34] = Protein binding in rat plasma assessed as unbound fraction at 0.3 mg/kg, po; format: ADME, organism-based; details: in vivo
[35] = Total drug level in rat plasma at 10 mg/kg, po; format: ADME, organism-based; details: in vivo
[36] = Clearance in Wistar Han rat at 1 mg/kg, iv or 2 mg/kg, po; format: ADME, organism-based; details: in vivo
[37] = molecular target: Histamine H1 receptor (Homo sapiens) (UniProt P35367); experiment: Inhibition of human histamine H1 receptor at 10 uM relative to control
[38] = Ratio of compound effect for protein binding in rat plasma assessed as unbound fraction at 10 mg/kg, po to fEC50 for positive allosteric modulation of recombinant human GPR40 expressed in HEK293 cells in presence of 100% human serum
[39] = molecular target: Prostacyclin receptor (Homo sapiens) (UniProt P43119); experiment: Inhibition of human prostanoid IP receptor at 10 uM relative to control
[40] = Solubility of the compound in FASSIF; format: physicochemical
[41] = Total drug level in Wistar Han rat plasma at 1 mg/kg, iv or 2 mg/kg, po measured at 3 hrs; format: ADME, organism-based
Rattus norvegicus [42] = experiment: Hypoglycemic activity in Sprague-Dawley rat assessed as reduction in blood glucose AUC at 30 mg/kg, po pretreated for 1 hr followed by glucose challenge by OGTT relative to control; format: functional; design: scale not given: the % may be the effect or the level left
[43] = Half-life in Wistar Han rat at 1 mg/kg, iv or 2 mg/kg, po; format: ADME, organism-based; details: in vivo
[44] = Toxicity in rat assessed as change in clinical pathology at 600 mg/kg administered for 4 days; format: organism-based; details: in vivo, 96 h
[45] = molecular target: Peroxisome proliferator-activated receptor gamma (Homo sapiens) (UniProt P37231); experiment: Inhibition of human PPARG at 10 uM relative to control
[46] = molecular target: T1, Free fatty acid receptor 1; experiment: Positive allosteric modulation of recombinant human GPR40 expressed in HEK293 cells assessed as increase in [3H]-myo-inositol phosphate accumulation measured after 60 mins in presence of 100% human serum by microbeta counting method; format: functional, cell-based
[47] = Total drug level in rat plasma at 30 mg/kg, po; format: ADME, organism-based; details: in vivo
[48] = molecular target: Acetylcholinesterase (Homo sapiens) (UniProt P22303); experiment: Inhibition of human recombinant full length acetylcholine esterase expressed in HEK293 cells at 10 uM using acetylcholine as substrate preincubated for 15 mins followed by substrate addition measured after 20 mins by spectrophotometric analysis
[49] = Volume of distribution in Wistar Han rat at 1 mg/kg, iv or 2 mg/kg, po; format: ADME, organism-based; details: in vivo
Rattus norvegicus [50] = experiment: Hypoglycemic activity in Sprague-Dawley rat assessed as reduction in blood glucose AUC at 0.3 mg/kg, po pretreated for 1 hr followed by glucose challenge by OGTT relative to control; format: functional; design: scale not given: the % may be the effect or the level left
[51] = Protein binding in rat plasma assessed as unbound fraction at 1 mg/kg, po; format: ADME, organism-based; details: in vivo
[52] = Protein binding in human plasma assessed as unbound fraction level; format: ADME, cell-free
Rattus norvegicus [53] = experiment: Hypoglycemic activity in Sprague-Dawley rat assessed as reduction in blood glucose AUC at 3 mg/kg, ip measured after 3 hrs by IPGTT relative to control; format: functional

T1 sequence (O14842 whole entry): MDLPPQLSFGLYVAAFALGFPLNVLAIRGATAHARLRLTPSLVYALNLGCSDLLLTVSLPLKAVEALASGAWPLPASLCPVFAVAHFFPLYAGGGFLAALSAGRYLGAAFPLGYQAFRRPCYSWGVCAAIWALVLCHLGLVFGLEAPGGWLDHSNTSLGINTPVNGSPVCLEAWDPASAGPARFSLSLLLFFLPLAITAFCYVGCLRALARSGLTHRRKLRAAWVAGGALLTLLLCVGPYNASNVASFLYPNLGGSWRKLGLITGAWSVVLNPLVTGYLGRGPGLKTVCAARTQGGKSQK
Sequence of Prostaglandin E2 receptor EP3 subtype (Homo sapiens) (P43115 whole entry): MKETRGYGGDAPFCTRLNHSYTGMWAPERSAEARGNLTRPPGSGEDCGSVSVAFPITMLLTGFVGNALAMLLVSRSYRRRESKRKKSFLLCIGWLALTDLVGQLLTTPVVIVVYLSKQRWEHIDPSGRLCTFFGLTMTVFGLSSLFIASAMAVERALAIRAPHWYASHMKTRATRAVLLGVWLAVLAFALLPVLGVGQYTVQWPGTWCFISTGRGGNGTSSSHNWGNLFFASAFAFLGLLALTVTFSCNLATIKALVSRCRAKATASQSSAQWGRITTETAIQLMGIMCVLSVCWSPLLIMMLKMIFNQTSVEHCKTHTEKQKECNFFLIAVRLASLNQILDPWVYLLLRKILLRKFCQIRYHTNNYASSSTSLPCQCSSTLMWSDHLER
Sequence of Sodium-dependent dopamine transporter (Homo sapiens) (Q01959 whole entry): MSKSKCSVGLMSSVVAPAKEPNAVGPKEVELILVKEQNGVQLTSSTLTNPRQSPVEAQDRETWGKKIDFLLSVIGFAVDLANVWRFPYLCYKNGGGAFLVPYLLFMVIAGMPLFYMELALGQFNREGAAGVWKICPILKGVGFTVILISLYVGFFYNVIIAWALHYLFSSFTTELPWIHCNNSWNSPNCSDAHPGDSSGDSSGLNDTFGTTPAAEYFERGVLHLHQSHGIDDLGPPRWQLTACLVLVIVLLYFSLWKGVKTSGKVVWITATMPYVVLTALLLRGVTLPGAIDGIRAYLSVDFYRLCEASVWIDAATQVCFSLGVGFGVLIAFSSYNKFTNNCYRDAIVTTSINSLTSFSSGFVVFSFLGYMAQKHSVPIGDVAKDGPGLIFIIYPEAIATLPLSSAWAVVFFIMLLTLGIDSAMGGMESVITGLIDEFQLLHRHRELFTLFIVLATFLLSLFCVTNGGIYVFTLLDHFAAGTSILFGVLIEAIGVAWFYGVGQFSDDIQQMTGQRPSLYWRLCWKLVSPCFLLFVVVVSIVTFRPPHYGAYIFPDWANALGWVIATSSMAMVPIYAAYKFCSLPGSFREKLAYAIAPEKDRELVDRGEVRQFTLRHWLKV
Sequence of Acetylcholinesterase (Homo sapiens) (P22303 whole entry): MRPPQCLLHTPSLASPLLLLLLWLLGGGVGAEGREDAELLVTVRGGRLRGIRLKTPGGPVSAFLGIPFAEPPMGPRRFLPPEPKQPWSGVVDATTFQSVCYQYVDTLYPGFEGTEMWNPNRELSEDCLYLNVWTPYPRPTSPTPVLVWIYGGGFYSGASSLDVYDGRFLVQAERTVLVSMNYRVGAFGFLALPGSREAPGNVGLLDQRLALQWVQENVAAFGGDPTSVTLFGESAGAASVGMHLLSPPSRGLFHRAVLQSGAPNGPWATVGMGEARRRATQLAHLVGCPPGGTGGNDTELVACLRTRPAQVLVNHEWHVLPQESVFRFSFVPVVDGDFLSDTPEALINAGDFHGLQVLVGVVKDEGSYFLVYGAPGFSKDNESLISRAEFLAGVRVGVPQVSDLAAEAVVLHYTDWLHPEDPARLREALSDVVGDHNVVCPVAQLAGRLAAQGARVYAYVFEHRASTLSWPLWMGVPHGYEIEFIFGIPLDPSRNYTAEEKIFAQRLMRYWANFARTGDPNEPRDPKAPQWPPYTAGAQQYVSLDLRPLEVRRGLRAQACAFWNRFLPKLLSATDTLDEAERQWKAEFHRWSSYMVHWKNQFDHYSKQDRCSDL
Sequence of Cysteinyl leukotriene receptor 2 (Homo sapiens) (Q9NS75 whole entry): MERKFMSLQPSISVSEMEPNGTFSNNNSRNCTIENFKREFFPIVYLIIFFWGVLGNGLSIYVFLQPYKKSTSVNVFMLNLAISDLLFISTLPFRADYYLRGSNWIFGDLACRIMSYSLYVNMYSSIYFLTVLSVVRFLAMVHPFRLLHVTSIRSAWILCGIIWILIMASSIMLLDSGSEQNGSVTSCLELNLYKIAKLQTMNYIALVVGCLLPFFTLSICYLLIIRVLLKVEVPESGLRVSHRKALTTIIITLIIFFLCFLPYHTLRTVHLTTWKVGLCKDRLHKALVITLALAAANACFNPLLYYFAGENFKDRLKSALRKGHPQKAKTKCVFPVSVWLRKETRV
Sequence of Sodium-dependent noradrenaline transporter (Homo sapiens) (P23975 whole entry): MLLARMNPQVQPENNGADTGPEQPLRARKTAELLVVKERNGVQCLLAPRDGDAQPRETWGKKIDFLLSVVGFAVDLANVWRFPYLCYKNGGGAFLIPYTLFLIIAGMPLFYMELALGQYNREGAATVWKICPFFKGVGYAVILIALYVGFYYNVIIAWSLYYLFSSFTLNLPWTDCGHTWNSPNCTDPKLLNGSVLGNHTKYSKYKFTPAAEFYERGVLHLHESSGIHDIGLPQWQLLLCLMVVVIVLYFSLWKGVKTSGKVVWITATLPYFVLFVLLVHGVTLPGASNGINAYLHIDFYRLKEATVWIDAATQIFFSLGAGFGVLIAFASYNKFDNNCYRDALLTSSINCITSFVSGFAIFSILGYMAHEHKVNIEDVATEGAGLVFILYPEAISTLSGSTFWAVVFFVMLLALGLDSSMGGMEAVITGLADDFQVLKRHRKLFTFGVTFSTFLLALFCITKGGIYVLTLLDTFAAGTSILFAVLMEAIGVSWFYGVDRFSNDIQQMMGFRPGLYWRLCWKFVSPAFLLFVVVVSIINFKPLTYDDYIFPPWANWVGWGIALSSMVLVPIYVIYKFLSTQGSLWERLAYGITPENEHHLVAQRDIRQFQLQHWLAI
Sequence of Histamine H1 receptor (Homo sapiens) (P35367 whole entry): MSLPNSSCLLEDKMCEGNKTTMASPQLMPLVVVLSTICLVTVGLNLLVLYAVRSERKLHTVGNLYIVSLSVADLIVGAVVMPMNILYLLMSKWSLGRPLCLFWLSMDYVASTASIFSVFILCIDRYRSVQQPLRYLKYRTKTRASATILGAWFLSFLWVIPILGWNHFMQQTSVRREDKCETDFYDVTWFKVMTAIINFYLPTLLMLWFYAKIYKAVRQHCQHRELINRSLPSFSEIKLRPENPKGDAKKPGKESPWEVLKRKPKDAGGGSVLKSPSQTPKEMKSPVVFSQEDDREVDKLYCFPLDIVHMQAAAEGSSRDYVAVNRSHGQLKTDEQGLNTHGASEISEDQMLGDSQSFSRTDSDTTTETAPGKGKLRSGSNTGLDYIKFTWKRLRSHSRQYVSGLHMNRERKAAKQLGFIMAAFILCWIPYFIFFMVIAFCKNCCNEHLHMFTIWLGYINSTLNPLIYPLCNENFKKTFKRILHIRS
Sequence of Beta-3 adrenergic receptor (Homo sapiens) (P13945 whole entry, looked up): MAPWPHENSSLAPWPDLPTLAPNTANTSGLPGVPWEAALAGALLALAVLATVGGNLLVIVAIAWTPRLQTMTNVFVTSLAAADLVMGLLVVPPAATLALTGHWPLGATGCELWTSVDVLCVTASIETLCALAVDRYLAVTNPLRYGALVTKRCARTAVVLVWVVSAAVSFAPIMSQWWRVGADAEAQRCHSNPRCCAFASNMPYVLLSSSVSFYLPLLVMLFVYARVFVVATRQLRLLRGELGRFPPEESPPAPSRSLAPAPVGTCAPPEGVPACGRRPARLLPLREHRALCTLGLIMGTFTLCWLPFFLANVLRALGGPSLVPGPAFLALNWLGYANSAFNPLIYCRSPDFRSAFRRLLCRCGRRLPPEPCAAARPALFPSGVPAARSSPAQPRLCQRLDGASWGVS
Sequence of Prostaglandin E2 receptor EP1 subtype (Homo sapiens) (P34995 whole entry): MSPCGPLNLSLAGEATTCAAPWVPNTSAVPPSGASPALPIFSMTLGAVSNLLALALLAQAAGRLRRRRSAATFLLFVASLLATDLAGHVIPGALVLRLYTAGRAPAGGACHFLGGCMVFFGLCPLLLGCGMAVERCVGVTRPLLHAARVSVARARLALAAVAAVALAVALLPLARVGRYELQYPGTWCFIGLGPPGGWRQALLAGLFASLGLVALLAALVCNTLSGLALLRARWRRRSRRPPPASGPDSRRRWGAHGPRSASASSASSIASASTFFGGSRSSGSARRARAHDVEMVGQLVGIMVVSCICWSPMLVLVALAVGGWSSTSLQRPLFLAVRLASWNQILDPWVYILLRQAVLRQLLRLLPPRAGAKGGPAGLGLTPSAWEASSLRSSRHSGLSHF
Sequence of Peroxisome proliferator-activated receptor gamma (Homo sapiens) (P37231 whole entry): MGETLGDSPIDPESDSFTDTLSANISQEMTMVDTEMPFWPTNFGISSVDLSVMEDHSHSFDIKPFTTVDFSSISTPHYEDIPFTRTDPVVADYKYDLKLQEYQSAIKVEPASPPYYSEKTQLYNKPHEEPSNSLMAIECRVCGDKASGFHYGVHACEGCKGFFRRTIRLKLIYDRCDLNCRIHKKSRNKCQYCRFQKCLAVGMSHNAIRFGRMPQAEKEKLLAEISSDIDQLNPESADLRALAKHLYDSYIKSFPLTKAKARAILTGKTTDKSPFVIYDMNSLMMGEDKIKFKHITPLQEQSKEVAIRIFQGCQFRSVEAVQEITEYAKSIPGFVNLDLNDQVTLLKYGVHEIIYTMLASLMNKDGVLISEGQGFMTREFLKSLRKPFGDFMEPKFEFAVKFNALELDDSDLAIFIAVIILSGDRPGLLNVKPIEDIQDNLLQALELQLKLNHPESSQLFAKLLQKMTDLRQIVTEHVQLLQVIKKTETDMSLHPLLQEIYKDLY

C[C@H](C(=O)O)[C@H](c1cccc(O[C@@H]2CCc3cc(-c4cc(OS(=O)(=O)O)ccc4F)ccc32)c1)C1CC1
Drug metabolism [1]: Metabolite_Detected

C[C@H](C(=O)OC1O[C@H](C(=O)O)[C@@H](O)[C@H](O)[C@H]1O)[C@H](c1cccc(O[C@@H]2CCc3cc(-c4cc(O)ccc4F)ccc32)c1)C1CC1 (stereo not given in full)
Stability [2]: Stable | Drug metabolism [3]: Metabolite_Detected

COc1ccc(F)c(-c2ccc3c(c2)CC[C@H]3Oc2cccc([C@H](C3CC3)[C@H](C)C(=O)O)c2)c1
Activity [4]: Toxic | Fu [5]: 0.01% | Activity [6]: 323% | Drug metabolism [7]: Metabolite_Detected | Activity (Rattus norvegicus [8]): 105% | EC50 [9]: 4.5 nM | Drug metabolism [10]: Metabolite_Detected | Cmax [11]: 2900 nM | Cp(f) [12]: 0.45 nM | Activity [13]: 205% | inhibition [14]: 69% | Activity (Rattus norvegicus [15]): 82% | AUC/dose [16]: 21.5 µM·h | Activity (Rattus norvegicus [17]): 40% | concentration [18]: 1240 nM | Ratio [19]: 42 | Activity [20]: Non-Toxic | concentration [21]: 4470 nM | concentration [22]: 1900 nM | concentration [23]: 207 nM | bioavailability [24]: 81% | inhibition [25]: 80% | inhibition [26]: 71% | inhibition [27]: 81% | Activity (Mus musculus): Active | Cp(f) [28]: 0.16 nM | concentration [29]: 689 nM | inhibition [30]: 55% | Cp(f) [31]: 0.76 nM | Cp(f) [32]: 1.73 nM | inhibition [33]: 89% | Cp(f) [34]: 0.02 nM | concentration [35]: 7610 nM | clearance [36]: 2.8 mL/min/kg | inhibition [37]: 70% | Ratio [38]: 19 | inhibition [39]: 68% | solubility [40]: 153 µM (≈ 70.5 µg/mL) | concentration at 3 h [41]: 1600 nM | Activity (Rattus norvegicus [42]): 114% | half-life [43]: 1.8 h | Activity [44]: Toxic | inhibition [45]: 87% | EC50 [46]: 388 nM | fEC50 [46]: 0.04 nM | concentration [47]: 17300 nM | inhibition [48]: 52% | Vd [49]: 0.33 L/kg | Activity (Rattus norvegicus [50]): 19% | Cp(f) [51]: 0.069 nM | Fu [52]: 0.01% | inhibition in vivo at 3 mg/kg (Rattus norvegicus [53]): 71%
